Here are results for nine molecules from patent US5739284A, “Compositions corresponding to a high-affinity glutamate transporter molecule and methods for making and using same” (Brigham and Women's Hospital, Inc., priority 1995, dated 1998).

Where a chain is given by its changes, count along the chain named. Read-outs that look alike come from different tables or passages of the source.

Data set [1] deals with T1, Human High Affinity Glutamate Transporter HEAAC1 (Homo sapiens, UniProt P43005).
T1 sequence (P43005 1-524 V96L/K170N/P172A/L260H): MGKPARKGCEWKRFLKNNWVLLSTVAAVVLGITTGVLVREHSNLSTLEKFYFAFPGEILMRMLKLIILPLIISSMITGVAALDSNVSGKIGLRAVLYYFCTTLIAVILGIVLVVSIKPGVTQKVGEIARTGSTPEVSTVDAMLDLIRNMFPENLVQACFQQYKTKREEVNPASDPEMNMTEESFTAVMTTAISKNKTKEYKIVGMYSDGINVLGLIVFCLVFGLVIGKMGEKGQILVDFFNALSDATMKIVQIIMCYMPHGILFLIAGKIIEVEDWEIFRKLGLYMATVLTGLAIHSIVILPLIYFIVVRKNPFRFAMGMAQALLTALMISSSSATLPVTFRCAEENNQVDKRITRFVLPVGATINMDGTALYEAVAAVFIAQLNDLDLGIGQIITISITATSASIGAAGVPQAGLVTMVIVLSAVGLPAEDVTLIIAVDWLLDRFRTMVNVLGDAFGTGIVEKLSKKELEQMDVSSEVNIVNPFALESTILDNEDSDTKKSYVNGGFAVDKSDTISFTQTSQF
The data set can be described thus: substrate-evoked currents in oocytes expressing human carrier. As to conditions: for inward currents induced: AAD at 50 μM, DHK up to 1 mM. An excerpt: (§1) The glutamate evoked currents were first measured without addition of inhibitor. […] Calculation of KI values was based on the kinetics for competitive inhibition.
Oocytes were used for two-microelectrode voltage-clamping as described above and command potentials were applied and controlled by an IBM-compatible computer via the software CLAMPEX from pCLAMP (version 5.5 Axon Instruments, CA). The oocyte membrane was held at -50 mV and pulsed to the test potential for […] followed by a 1 sec interpulse interval at the holding potential of -50 mV before application of the next pulse. Current was low-pass filtered at […], digitized at 200 μsec and saver on the computer. Steady-state currents were obtained by averaging the current between 72 and 76 msec.

Data set [2] deals with T1, Human High Affinity Glutamate Transporter HEAAC1. Briefly: inhibition of L-glutamate-evoked currents in oocytes expressing human carrier. Type of data set: cell-based. Also on record: expressed in transfected cells; host or cells: Xenopus laevis oocytes (cRNA injection; human kidney clone K-3). Particulars: for Ki / IC50: HEAAC1; for Ki: based on the kinetics for competitive inhibition; for inhibition of the current induced by L-glutamate: L-glutamate 10-1,000 μM, DHK 1 mM; for order of sensitivity to inhibitors based on IC50 values: current induced by 100 μM L-glutamate.
Description: as §1

The target in data set [3] is T2, human excitatory amino acid carrier (Homo sapiens, UniProt P43005).
T2 sequence (P43005 1-524): T1 sequence (P43005 1-524 V96L/K170N/P172A/L260H) with L96V, N170K, A172P, H260L
Briefly: voltage dependence of currents mediated by human carrier. Type of data set: cell-based.

Data set [4] has as its system synaptosomal L-glutamate uptake. Particulars: Robinson et al. / previously known; cited from earlier work.
Data set [5] concerns the target T3, rabbit derived excitatory amino acid carrier (Oryctolagus cuniculus, UniProt P31597).
T3 construct: ID No. 4; expressed in transfected cells; host or cells: Xenopus laevis oocytes injected with cRNA (25 ng/oocyte)
T3 sequence (P31597 1-524): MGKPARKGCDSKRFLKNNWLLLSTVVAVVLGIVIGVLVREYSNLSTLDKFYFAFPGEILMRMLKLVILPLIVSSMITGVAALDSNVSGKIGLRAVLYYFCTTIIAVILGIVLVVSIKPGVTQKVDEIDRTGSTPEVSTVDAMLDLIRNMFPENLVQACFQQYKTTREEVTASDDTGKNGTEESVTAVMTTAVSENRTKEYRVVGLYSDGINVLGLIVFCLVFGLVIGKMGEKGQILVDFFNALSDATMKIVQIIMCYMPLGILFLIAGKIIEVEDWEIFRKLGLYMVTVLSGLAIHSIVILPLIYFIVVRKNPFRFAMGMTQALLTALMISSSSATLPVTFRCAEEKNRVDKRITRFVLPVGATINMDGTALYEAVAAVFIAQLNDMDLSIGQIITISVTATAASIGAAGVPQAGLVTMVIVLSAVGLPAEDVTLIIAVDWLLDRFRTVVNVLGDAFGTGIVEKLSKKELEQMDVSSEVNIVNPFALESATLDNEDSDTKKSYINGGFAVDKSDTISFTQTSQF
The data set can be described thus: inhibition of current evoked by L-glutamate in oocytes expressing rabbit EAAC1. Type of data set: cell-based. On the procedure:
Xenopus laevis oocytes were injected with cRNA (25 ng/oocyte) encoding for the excitatory amino acid carrier protein derived from rabbit as described in Example 1. Electrophysiological measurements were performed 3-4 days after injection using a conventional two-microelectrode voltage clamp method (Axoclamp-2A, Axon Instruments, CA).
The standard bath solution (ND 96) contained 96 mM NaCl, 2 mM KCl, 1.8 mM CaCl2, 1.0 mM MgCl2 and 5 mM HEPES pH 7.4 The recording chamber was perfused with bath solution. Current responses of Xenopus laevis oocytes injected with cRNA coding for the excitatory amino acid carrier protein and fragments thereof to bath applied 100 μM substrates are illustrated in FIG. 7.
Example 7 illustrates the application of the electrophysiological features of the excitatory amino acid carrier protein, derived from rabbit, described in Example 6 in the screening of drugs to enhance or inhibit the protein. The Xenopus laevis oocytes was injected with rabbit derived excitatory amino acid carrier cRNA and processed as described in Example 6. […] Robinson, M. B., Hunter-Ensor, M. & Sinor, J., "Pharmacologically distinct sodium-dependentL-[3H]glutamate transport process in rat brain," Brain Research 544:196-202 (1991).

Data set [6] deals with T4, excitatory amino acid carrier protein (EAAC1) derived from rabbit (Oryctolagus cuniculus, UniProt P31597).
T4 sequence (P31597 1-524): T3 sequence (P31597 1-524)
Briefly: substrate-evoked currents (two-microelectrode voltage clamp) in oocytes expressing rabbit EAAC1. As to conditions: 100 μM substrate, -60 mV holding potential, FIG. 7.

Substrate in data set [7]: N[C@H](CC(=O)O)C(=O)O
Briefly: cells, lysate or membranes. Particulars: other: EAAC1, rabbit derived; pH 7.4.

Substrate in data set [8]: N[C@@H](CC(=O)O)C(=O)O
Briefly: cells, lysate or membranes. As to conditions: other: EAAC1, rabbit derived; pH 7.4.

Substrate in data set [9]: N[C@@H](CCC(=O)O)C(=O)O
Briefly: cells, lysate or membranes. As to conditions: pH 7.4.

Substrate in data set [10]: O=C(O)[C@H]1CN[C@H](C(=O)O)C1
The data set can be described thus: cells, lysate or membranes. As to conditions: other: HEAAC1, human.

Substrate in data set [11]: N[C@H](C(=O)O)[C@H](O)C(=O)O
Briefly: cells, lysate or membranes. Particulars: other: HEAAC1, human.

Substrate in data set [12]: N[C@@H](CCCC(=O)O)C(=O)O
Briefly: cells, lysate or membranes. Particulars: other: HEAAC1, human.

Where [13] appears, read: IC50, L-Glu = 100 um, L-Glu = 100 um.

For orientation: Ki means the equilibrium dissociation constant of an inhibitor or competing ligand from its target. Lower therefore signals a stronger hold on the target. Broadly, the IC50 is the midpoint of a concentration-inhibition curve. Turning to `O=C(O)[C@H]1CN[C@H](C(=O)O)C1` [PDC, L-trans-pyrolidine-2,4-dicarboxylate], in data set [1], the “substrate of the carrier / effect on transport” value is recorded as “transport substrates” and the inward currents induced entry was “large inward currents”. In data set [2], the Ki is approximately 1 µM, the “inhibition of the current induced by L-glutamate” value (“inhibition of the current induced” for short) was “potent inhibitors” and the “order of sensitivity to inhibitors based on IC50 values” is on record as “THA>PDC>>AAA>DHK”. In data set [2] (IC50, L-Glu = 1 mM, L-Glu = 1 mM), this molecule gave an IC50 of 91 ± 7.2 µM. For the same molecule, in [2] (setting [13]), half-maximal inhibition (IC50) was put at 74 ± 11 µM. In data set [2] (human carrier), the “maximal transport rate (Vmax) of glutamate uptake” value was “reduces the maximal transport rate (Vmax)” and the “preference as uptake inhibitor” value is “preferred uptake inhibitor”. In addition, in data set [3], the “Vmax for the PDC-induced current” value is reported as “markedly reduced”; the “overall voltage-dependencies of L-glutamate and PDC evoked currents” value is reported as “identical”.
What is called inhibition is how much of the control response was suppressed. Regarding `CC(C)[C@H]1CN[C@H](C(=O)O)[C@H]1CC(=O)O` [DHK, dihydrokainate], the inward currents induced result in data set [1] is recorded as “did not induce significant currents”. The “inhibition of synaptosomal L-glutamate uptake” value in [4] is on record as “less effective inhibitors”. Further, in [2], the “inhibition of the current induced” value is listed as “did not inhibit the current efficiently” and the “order of sensitivity to inhibitors based on IC50 values” is on record as “THA>PDC>>AAA>DHK”. Besides, in [2] (read-out: inhibition at 1 mM DHK (IC50)), the inhibition at 1000 µM was 6.7%. Further, the IC50 in [5] (rabbit EAAC1, value in mM, read-out: IC50, inhibition of glutamate induced inward currents) was more than 1 mM.
Consider `N[C@@H](Cn1oc(=O)[nH]c1=O)C(=O)O` [Quisgualate, quisgualate], for which the “amplitude of inward current evoked by substrate” value in data set [6] is reported as “small but significant inward current”.
For `N[C@H](C(=O)O)[C@H](O)C(=O)O` (relative stereo) [THA, DL-threo-β-hydroxyaspartate], in data set [1], the “substrate of the carrier / effect on transport” value is “transport substrates” and the inward currents induced result is “large inward currents”. The “inhibition of synaptosomal L-glutamate uptake” value in data set [4] is recorded as “strong inhibitor”. In data set [2] (setting [13]), this molecule showed an IC50 of 28 ± 0.8 µM. Also, in [2], the “inhibition of the current induced” value is “potent inhibitors” and the “order of sensitivity to inhibitors based on IC50 values” is listed as “THA>PDC>>AAA>DHK”. In addition, the IC50 in [5] was determined as 0.0071 mM.
For the molecule `N[C@@H](CCCC(=O)O)C(=O)O` [AAD, L-α-aminoadipate], in data set [2], the Ki is approximately 20 µM and the “order of sensitivity to inhibitors based on IC50 values” is recorded as “THA>PDC>>AAA>DHK”. The IC50 in [5] stood at 0.165 mM.
In the case of `N[C@@H](CCC(=O)O)C(=O)O` [L-glutamate], the “voltage dependence of Km for L-glutamate” value in [3] is listed as “strongly depended on membrane voltage”.
For `C=C(C)[C@H]1CN[C@H](C(=O)O)[C@H]1CC(=O)O` [kainate], in data set [6], the “amplitude of inward current evoked by substrate” value was “did not induce current”.

B1: excitatory amino acid carrier protein (EAAC1) derived from rabbit (Oryctolagus cuniculus) (protein)
chain: T3 sequence (P31597 1-524)
Usually Km stands for the substrate concentration at which the rate is half of its maximum. Take B1: the Michaelis constant (Km) in data set [7] turned out to be 7.5 µM; in [8] it was 6.5 µM; in data set [9] (other: EAAC1, rabbit derived), 12.1 µM; in data set [9] (other: glutamate-induced current, rabbit EAAC1 in oocytes) it was 12.2 µM.

B2: Human High Affinity Glutamate Transporter HEAAC1 (Homo sapiens) (protein)
chain: T1 sequence (P43005 1-524 V96L/K170N/P172A/L260H)
On to B2, for which the results for the Km in data set [10], in data set [11] and in [12] were 23 ± 3.7 µM, 34 ± 6.4 µM and 2400 ± 0.6 µM, respectively.
